We go through 6 compounds from patent US12097210B2, “Concomitant administration of glucocorticoid receptor modulators and CYP3A inhibitors” (Corcept Therapeutics, Inc., priority 2017, dated 2024).

The nature of series [1]: Example 3: effect of ketoconazole 200 mg twice daily on PK of mifepristone 600 mg once daily and metabolites, with food. Format: in vivo, human. The following applies: for concentrations on Day 17 compared with Day 12: 600 mg mifepristone daily with 200 mg ketoconazole twice daily vs mifepristone alone; for Ratio % Test/Reference, AUC0-24 / Ratio % Test/Reference, Cmax: Test: Day 17, 600 mg mifepristone OD + 200 mg Ketoconazole BID, Reference: Day 12, 600 mg mifepristone OD, geometric mean ratio. On the procedure:
(§1) A single dose of ketoconazole was administered on Day −1.
(§2) The study was a two period study design.
Concentrations of RU 42633 and RU 42848 were similar on Day 17 and Day 12.

The nature of another series: clinical. The following applies: male, human, in vivo. On the procedure:
This study was conducted in accordance with Good Clinical Practice under the guidance of an Institutional Review Board and in accordance with applicable local legal and regulatory requirements.
KORLYM® was supplied in 300 mg tablets for oral administration. Three or four tablets were administered once daily (OD) to provide either the 900 mg or 1200 mg per day dose.
Itraconazole was supplied • in 100 mg capsules for oral administration. Two capsules were administered once daily (OD) to provide the 200 mg per day dose.
All drug administrations were oral and were given after the morning meal.
The inclusion criteria required, among other criteria, that the subjects be healthy male subjects between the ages of 18 and 65, weigh more than 110 pounds, and have a body mass index (BMI) of 18 to 32 kg/m^2. The design included a Screening Period of up to 3 weeks (subjects were screened at a time between days −21 to −1 prior to the first treatment period), three 14-day treatment periods, and a Follow-Up (FU) Period of 14 days for safety observation.
Subjects meeting the inclusion criteria (n=22) were administered drug daily and blood samples were taken on the days indicated below during Periods 1-3 and on day 43 of the follow-up period.
Subjects presented at the Clinical Research Unit (CRU) after an 8-hour overnight fast, then predose PK samples were taken and other evaluations (predose electrocardiograms (ECGs), plasma cortisol and ACTH, serum chemistry tests) were performed. […] On the specific days indicated above, additional blood draws for determining 24-hour PK profiles were performed.
Pharmacokinetic (PK) parameters measured and computed included AUC (area under the concentration−time curve), AUC0-24 (AUC values from time 0 to 24 hours postdose), Cmax (maximum concentration), and Css (average steady-state concentration, calculated as AUC0-24/24).

Series [2] can be described thus: Example 2: effect of a 400 mg single dose of ketoconazole on PK of an 8-day regimen of 300 mg or 600 mg OD mifepristone after moderate fat breakfast. Format: in vivo, human. Conditions: 300 or 600 mg OD mifepristone. The method, then:
This was an open-label study in healthy male subjects. […] The 400 mg single dose of ketoconazole was given to all subjects on day 8.
METHODOLOGY: Twelve subjects were enrolled, six in Cohort 1 and 6 in Cohort 2.
(§3) Subjects were discharged on Day 11.
(§4) Subjects were discharged on Day 11. Subjects in both cohorts returned to study center on Day 13 for safety monitoring, collection of the 120-hour PK draw, and completion of the Termination Visit procedures, followed by discharge from the study. To the extent possible, any adverse events deemed study drug-related and that were ongoing at the time of discharge from the study were followed-up to resolution or until a determination was made that the unresolved event was stable.
DIAGNOSIS AND MAIN […] FOR INCLUSION: Healthy male volunteers between the ages of 18 to 45 years of age with a body mass index (BMI) ranging between 19 and 32 kg/m2 and a weight of at least 60 kg (132 lbs) were enrolled. Subjects had no clinically significant abnormal findings on the physical examination, ECG, blood pressure, heart rate, medical history, or clinical laboratory results during screening. The QTc interval at screening was less than 450 msec.
(§5) DURATION OF TREATMENT: Up to a total of 28 days, including up to 2 weeks screening, dosing on Days 1-8, safety observation, and PK sample collection through Day 13.
(§6) Additionally, comparisons were made between the PK results of cohort 1 and 2. Pharmacokinetic parameters Cmax, T½ and total AUC were calculated for plasma concentrations of ketoconazole following the single dose on Day 8. Descriptive statistics (count, mean, median, standard deviation, minimum, maximum, and % coefficient of variation) were provided. Ketoconazole concentrations were listed and summarized. GM means of Cmax and total AUC were compared for the single dose in this study to the combined data of reported 400 mg single doses of ketoconazole of healthy subjects from the literature.

A short description of series [3]: Example 3: cross-study comparison of exposure with historic study of 1200 mg mifepristone OD. The following applies: Test: Day 17, 600 mg mifepristone OD + 200 mg Ketoconazole BID; Reference: historic study Day 7, 1200 mg mifepristone OD alone; after 34% fat meal. In kind it is in vivo, human.
For another series, the system named is CYP3A. The following applies: 38 published studies, 411 subjects; concomitantly administered CYP3A inhibitor; cited from earlier work.
Series [4] is described as follows: Example 3: effect of co-administration with mifepristone on ketoconazole PK. In kind it is in vivo, human. On the procedure: as §1, §2
Series [5] is described as follows: Example 2: PK of ketoconazole 400 mg single dose on Day 8 of mifepristone regimen. Format: in vivo, human. Conditions: single 400 mg ketoconazole dose on Day 8.
From the text: as §3, §4, §5, §6

Where [6] appears, read: 600 mg mifepristone OD + 200 mg ketoconazole BID.
[7] abbreviates: 400 mg ketoconazole (200 mg twice per day) with 600 mg mifepristone per day.
The mark [8] stands for this setting: Test: Day 17, 600 mg mifepristone OD + 200 mg Ketoconazole BID, Reference: Day −1, 200 mg Ketoconazole single dose.

With `CN(C)c1ccc([C@H]2C[C@@]3(C)[C@@H](CC[C@@]3(O)C#CCO)[C@@H]3CCC4=CC(=O)CCC4=C32)cc1` [RU 42698, (8S,11R,13S,14S,17S)-11-[4-(dimethylamino)phenyl]-17-hydroxy-17-(3-hydroxyprop-1-ynyl)-13-methyl-1,2,6,7,8,11,12,14,15,16-decahydrocyclopenta[a]phenanthren-3-one], in series [1] (setting [6]), the “mean increase in exposure on co-administration with ketoconazole” value is “approximately 70%”. Moreover, in series [1], the “concentrations on Day 17 compared with Day 12” value was “higher”; the “Ratio % Test/Reference, AUC0-24” value was 166.86%; the “Ratio % Test/Reference, Cmax” value is reported as 169.13%. The “share of the total steady-state AUC0-24 of mifepristone, RU42633, RU42698, RU42848” value in series [1] (in the presence of ketoconazole) came out at 13%. Further, in series [1] (mifepristone alone), the “share of the total steady-state AUC0-24 of mifepristone, RU42633, RU42698, RU42848” value is listed as 9%. Moreover, in “clinical” (900 mg), the AUC(0-t) is 15100 ng·h/mL and the Cmax stood at 755 ng/mL. In the series “clinical” (1200 mg), this compound returned an AUC(0-t) of 16900 ng·h/mL and a Cmax of 853 ng/mL. In addition, the “mean metabolite exposure compared with mifepristone” value in series [2] is reported as “lower”. Further, in series [3], the “Ratio % Test/Ref, AUC0-24” value was determined as 118.18% and the “Ratio % Test/Ref, Cmax” value came out at 116.55%.

For `CCC(C)n1ncn(-c2ccc(N3CCN(c4ccc(OCC5COC(Cn6cncn6)(c6ccc(Cl)cc6Cl)O5)cc4)CC3)cc2)c1=O` (stereo not drawn) [itraconazole], the “increase of plasma levels (AUC) of orally administered midazolam” value (shortened to “increase of plasma levels”) in the series on CYP3A is on record as “more than 7 fold”.

In the case of `CC#C[C@]1(O)CC[C@H]2[C@@H]3CCC4=CC(=O)CCC4=C3[C@@H](c3ccc(N)cc3)C[C@@]21C` [RU 42848, (8S,11R,13S,14S,17S)-11-(4-aminophenyl)-17-hydroxy-13-methyl-17-prop-1-ynyl-1,2,6,7,8,11,12,14,15,16-decahydrocyclopenta[a]phenanthren-3-one], the “change in exposure on co-administration with ketoconazole” value in series [1] (setting [6]) is listed as “little change in exposure”. In series [1], the “concentrations on Day 17 compared with Day 12” value is “similar”; the “Ratio % Test/Reference, AUC0-24” value came to 94.88%; the “Ratio % Test/Reference, Cmax” value is 95.48%. Besides, the “trough concentrations through the start of ketoconazole administration (Day 13)” value in series [1] (FIG. 1, 600 mg mifepristone OD) is recorded as “increasing day-by-day”. In “clinical” (900 mg), the area under the curve AUC(0-t) was 33900 ng·h/mL and the Cmax stood at 1630 ng/mL. Moreover, in the series “clinical” (1200 mg), the AUC(0-t) was determined as 36500 ng·h/mL and the concentration peaked (Cmax) at 1770 ng/mL. In series [3], the “Ratio % Test/Ref, AUC0-24” value was 81.43% and the “Ratio % Test/Ref, Cmax” value worked out at 82.45%.

Turning to `CC(=O)N1CCN(c2ccc(OCC3COC(Cn4ccnc4)(c4ccc(Cl)cc4Cl)O3)cc2)CC1` (stereo not drawn) [Ketoconazole, 1-acetyl-4-[4-[[2-(2,4-dichlorophenyl)-2-[(1H-imidazol-1-yl)-methyl]-1,3-dioxolan-4-yl]methoxy]phenyl]piperazine], in series [4] (setting [7]), the “increase in ketoconazole AUC with concomitant mifepristone” value is listed as 253% and the “increase in ketoconazole Cmax with concomitant mifepristone” value came to 365%. Further, in series [4] (setting [8]), the “Ratio % Test/Reference, AUC” value is 365.36% and the “Ratio % Test/Reference, Cmax” value is reported as 252.71%. Moreover, the “ketoconazole half-life on either mifepristone regimen” value in series [5] is recorded as “not appreciably different”. Besides, the “increase of plasma levels” value in the series with CYP3A is “more than 11 fold”.

In the case of `CC#C[C@]1(O)CC[C@H]2[C@@H]3CCC4=CC(=O)CCC4=C3[C@@H](c3ccc(NC)cc3)C[C@@]21C` [RU 42633, (8S,11R,13S,14S,17S)-17-hydroxy-13-methyl-11-[4-(methylamino)phenyl]-17-prop-1-ynyl-1,2,6,7,8,11,12,14,15,16-decahydrocyclopenta[a]phenanthren-3-one], the “change in exposure on co-administration with ketoconazole” value in series [1] (setting [6]) is on record as “little change in exposure”. Besides, in series [1], the “concentrations on Day 17 compared with Day 12” value is recorded as “similar”; the “Ratio % Test/Reference, AUC0-24” value came out at 102.33%; the “Ratio % Test/Reference, Cmax” value was determined as 105.73%. Also, in “clinical” (900 mg), the AUC(0-t) came out at 40300 ng·h/mL and the Cmax worked out at 1970 ng/mL. Also, in the series “clinical” (1200 mg), the area under the curve AUC(0-t) worked out at 45800 ng·h/mL and the highest level (Cmax) was 2160 ng/mL. For the same compound, in series [3], the “Ratio % Test/Ref, AUC0-24” value is on record as 91.34% and the “Ratio % Test/Ref, Cmax” value worked out at 96.31%.

As to `CC[C@H]1OC(=O)[C@H](C)[C@@H](O[C@H]2C[C@@](C)(OC)[C@@H](O)[C@H](C)O2)[C@H](C)[C@@H](O[C@@H]2O[C@H](C)C[C@H](N(C)C)[C@H]2O)[C@](C)(OC)C[C@@H](C)C(=O)[C@H](C)[C@@H](O)[C@]1(C)O` [clarithromycin], the “increase of plasma levels” value in the series with CYP3A is “more than 6 fold”.

In general, AUC(0-t) refers to the area under the concentration-time curve up to a stated or last time point. Read a low AUC(0-t) as low exposure. For orientation: Cmax means the maximum level reached in the sampled fluid or tissue.
